The values that follow come from patent US20240239808A1 (Forma Therapeutics, Inc., priority 2021, published 2024).

Molecules are shown by their SMILES.

T1 sequence (O94782 whole entry G670A/G671A): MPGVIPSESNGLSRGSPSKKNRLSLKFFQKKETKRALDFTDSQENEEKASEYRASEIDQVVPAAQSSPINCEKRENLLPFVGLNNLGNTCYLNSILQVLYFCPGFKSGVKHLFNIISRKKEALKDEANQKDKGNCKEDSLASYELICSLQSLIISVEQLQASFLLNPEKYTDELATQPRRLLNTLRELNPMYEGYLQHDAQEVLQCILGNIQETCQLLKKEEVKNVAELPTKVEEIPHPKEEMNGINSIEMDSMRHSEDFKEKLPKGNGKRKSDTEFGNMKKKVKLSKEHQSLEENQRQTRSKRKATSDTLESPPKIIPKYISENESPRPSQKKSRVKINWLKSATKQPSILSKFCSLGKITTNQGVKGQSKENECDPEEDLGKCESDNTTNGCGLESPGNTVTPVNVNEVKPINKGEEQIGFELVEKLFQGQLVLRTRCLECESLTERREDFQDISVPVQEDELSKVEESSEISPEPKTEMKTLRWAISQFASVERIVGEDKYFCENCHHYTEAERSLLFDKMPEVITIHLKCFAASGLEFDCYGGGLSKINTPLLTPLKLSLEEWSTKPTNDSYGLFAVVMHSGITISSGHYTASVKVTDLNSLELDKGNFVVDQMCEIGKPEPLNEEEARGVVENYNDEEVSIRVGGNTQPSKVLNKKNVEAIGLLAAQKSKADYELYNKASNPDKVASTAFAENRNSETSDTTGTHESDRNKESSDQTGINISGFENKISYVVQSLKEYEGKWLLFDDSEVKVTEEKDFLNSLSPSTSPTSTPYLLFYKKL
T1 sequence (Q8TAF3 whole entry partner): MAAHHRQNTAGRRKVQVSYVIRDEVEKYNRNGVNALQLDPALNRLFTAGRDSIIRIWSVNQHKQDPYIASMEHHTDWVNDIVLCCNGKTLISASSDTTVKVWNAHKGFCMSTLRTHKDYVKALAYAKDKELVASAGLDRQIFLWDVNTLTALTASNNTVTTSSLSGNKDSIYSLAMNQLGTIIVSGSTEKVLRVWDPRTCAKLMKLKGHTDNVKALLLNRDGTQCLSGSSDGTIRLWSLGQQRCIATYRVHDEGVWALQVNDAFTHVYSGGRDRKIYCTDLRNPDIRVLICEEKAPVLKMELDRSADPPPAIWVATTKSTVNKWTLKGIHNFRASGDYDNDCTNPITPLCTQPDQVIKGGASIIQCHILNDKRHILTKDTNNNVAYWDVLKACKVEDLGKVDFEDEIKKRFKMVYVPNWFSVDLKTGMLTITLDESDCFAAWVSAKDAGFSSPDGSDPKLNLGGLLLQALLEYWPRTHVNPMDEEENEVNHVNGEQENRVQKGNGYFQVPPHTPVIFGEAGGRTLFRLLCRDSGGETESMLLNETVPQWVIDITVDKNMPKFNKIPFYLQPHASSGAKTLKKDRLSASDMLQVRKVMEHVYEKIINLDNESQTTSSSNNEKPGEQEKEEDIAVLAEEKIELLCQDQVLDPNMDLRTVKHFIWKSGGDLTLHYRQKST

The experiment has as its target T1, USP1, construct USP1 (1-785, GG670, 671AA)/UAF1 (1-677)-Flag (Homo sapiens, UniProt O94782, G670A/G671A).
T1 construct: USP1, construct USP1 (1-785, GG670, 671AA)/UAF1 (1-677)-Flag; Viva; purchased Viva
Kind of experiment: Ubiquitin-Rhodamine 110 assay for USP1 activity. The class given is biochemical. Conditions: enzyme 25 pM, Ub-Rh110 25 nM, 30 minutes preincubation, 8- or 10-point dilution. As to the method: Example A: Ubitquin-Rhodamine 110 Assay for USP1 Activity
The HTS assay was performed in a final volume of 20 μL in assay buffer containing 20 mM Tris-HCl (pH 8.0, (1M Tris-HCl, pH 8.0 solution; Corning 46-031-CM)), 2 mM CaCl2) (1M Calcium Chloride solution; Sigma #21114) 1 mM GSH (L-Glutathione reduced; Sigma #G4251), 0.01% Prionex ([…] filtered, Sigma #G-0411), and 0.01% Triton X-100. Stock compound solutions were stored at −20° C. as 10 mM in DMSO. Up to 1 month prior to the assay, 2 mM test compounds were pre-dispensed into assay plates (Black, low volume; Corning #3820) and frozen at −20° C. Pre-stamped assay plates were allowed to come to room temperature on the day of the assay. For the screen, 100 nL of 2 mM was pre-dispensed for a final screening concentration of 10 μM (DMSO(fc)=0.5%). The final concentration of the enzyme (USP1, construct USP1 (1-785, GG670, 671AA)/UAF1 (1-677)-Flag; Viva) in the assay was 100 pM. Final substrate (Ub-Rh110; Ubiquitin-Rhodamine 110, R&D Systems #U-555) concentration was 25 nM with [Ub-Rh110]<<Km. 10 μL of 2× enzyme was added to assay plates (pre-stamped with compound) either simultaneously with 2×Ub-Rh110 or preincubated with USP1 40 minutes prior to the addition of 10 μL of 2×Ub-Rh110 to compound plates. Plates were incubated stacked for 45 minutes at room temperature before fluorescence was read on the Envision (Excitation at 485 nm and Emission at 535 nm; Perkin Elmer) or on the PheraSTAR (Excitation at 485 nm and Emission at 535 nm; BMG Labtech).
Nanoliter quantities of either an 8-point or 10-point, 3-fold serial dilution in DMSO were pre-dispensed into assay plates (Perkin Elmer, ProxiPlate-384 F Plus, #6008269) for a final test concentration range of either 25 μM to 11 nM or 25 μM to 1.3 nM, respectively. The final concentration of the enzyme (USP1, construct USP1 (1-785, GG670, 671AA)/UAF1 (1-677)-Flag; Viva) in the assay was 25 pM. Final substrate (Ub-Rh110; Ubiquitin-Rhodamine 110, R&D Systems #U-555) concentration was 25 nM with [Ub-Rh110]<<Km. 5 μL of 2× enzyme was added to assay plates (pre-stamped with compound) preincubated with USP1 for 30 minutes and then 5 μL of 2×Ub-Rh110 was added to assay plates. Plates were incubated stacked for 20 minutes at room temperature before 5 μL of stop solution (final concentration of 10 mM citric acid in assay buffer (Sigma, #251275-500G)). Fluorescence was read on the Envision (Excitation at 485 nm and Emission at 535 nm; Perkin Elmer) or on the PheraSTAR (Excitation at 485 nm and Emission at 535 nm; BMG Labtech).
For both assay formats data were reported as percent inhibition compared with control wells based on the following equation: % inh=[1−((FLU−AveLow)/(AveHigh−AveLow))]×100 where FLU=measured Fluorescence, AveLow=average Fluorescence of no enzyme control (n=16), and AveHigh=average Fluorescence of DMSO control (n=16). IC50 values were determined by curve fitting of the standard 4 parameter logistic fitting algorithm included in the Activity Base software package: IDBS XE Designer Model205. Data is fitted using the Levenburg Marquardt algorithm.
As for `CC(C)c1ccccc1-c1ncc2sc(=O)n(Cc3ccc(-c4nc(C(F)(F)F)cn4C)cc3)c2n1` [Example I-1, 5-(2-isopropylphenyl)-3-(4-(1-methyl-4-(trifluoromethyl)-1H-imidazol-2-yl)benzyl)thiazolo[4,5-d]pyrimidin-2(3H)-one], the IC50 was not above 0.01 µM.

Compound `CC(C)c1ncccc1-c1ncc2c(n1)N(Cc1ccc(-c3nc(C(F)(F)F)cn3C)cc1)CCO2` [Example I-2, 3-[8-([4-[1-methyl-4-(trifluoromethyl)-1H-imidazol-2-yl]phenyl]methyl)-6H,7H,8H-pyrimido[5,4-b][1,4]oxazin-2-yl]-2-(propan-2-yl)pyridine] returned an IC50 not above 0.01 µM.

Take `CC(C)c1ncccc1-c1ncc2c(n1)N(Cc1ccc(-c3nc(C(F)(F)F)cn3C)cc1)C(=O)CO2` [Example I-4, 8-([4-[1-methyl-4-(trifluoromethyl)-1H-imidazol-2-yl]phenyl]methyl)-2-[2-(propan-2-yl)pyridin-3-yl]-6H,7H,8H-pyrimido[5,4-b][1,4]oxazin-7-one]: the IC50 was 0.01 to 0.1 µM.

Regarding `CC(C)c1ncccc1-c1ncc2c(n1)N(Cc1ccc(-c3nc(C(F)(F)F)cn3C)cc1)C(=O)C(C)(C)O2` [Example I-5, 6,6-dimethyl-8-([4-[1-methyl-4-(trifluoromethyl)-1H-imidazol-2-yl]phenyl]methyl)-2-[2-(propan-2-yl)pyridin-3-yl]-6H,7H,8H-pyrimido[5,4-b][1,4]oxazin-7-one], the IC50 was 0.01 to 0.1 µM.

On to `CC(C)c1ccccc1-c1ncc2c(n1)N(Cc1ccc(-c3nc(C(F)(F)F)cn3C)cc1)C(=O)N(C)C2` [Example I-6, 3-methyl-1-([4-[1-methyl-4-(trifluoromethyl)-1H-imidazol-2-yl]phenyl]methyl)-7-[2-(propan-2-yl)phenyl]-1H,2H,3H,4H-[1,3]diazino[4,5-d]pyrimidin-2-one], for which the IC50 lay in the range of 0.01 to 0.1 µM.

In the case of `CC(C)c1ccccc1-c1ncc2c(n1)N(Cc1ccc(-c3nc(C(F)(F)F)cn3C)cc1)C(=O)OC2` [Example I-7, 1-([4-[1-methyl-4-(trifluoromethyl)-1H-imidazol-2-yl]phenyl]methyl)-7-[2-(propan-2-yl)phenyl]-1H,2H, 4H-pyrimido[4,5-d][1,3]oxazin-2-one], the IC50 is not above 0.01 µM.

With `CC(C)c1ncccc1-c1ncc2c(n1)N(Cc1ccc(-c3nc(C(F)(F)F)cn3C)cc1)C(=O)OC2` [Example I-8, 1-([4-[1-methyl-4-(trifluoromethyl)-1H-imidazol-2-yl]phenyl]methyl)-7-[2-(propan-2-yl)pyridin-3-yl]-1H,2H, 4H-pyrimido[4,5-d][1,3]oxazin-2-one], the IC50 lay within 0.01 to 0.1 µM.

`CC(C)c1ncccc1-c1ncc2ccn(Cc3ccc(-c4nc(C(F)(F)F)cn4C)cc3)c2n1` [Example I-9, 3-[7-([4-[1-methyl-4-(trifluoromethyl)-1H-imidazol-2-yl]phenyl]methyl)-7H-pyrrolo[2,3-d]pyrimidin-2-yl]-2-(propan-2-yl)pyridine] registered an IC50 not above 0.01 µM.

Compound `CC(C)c1ncccc1-c1ncc2cnn(Cc3ccc(-c4nc(C(F)(F)F)cn4C)cc3)c2n1` [Example I-10, 3-[1-([4-[1-methyl-4-(trifluoromethyl)-1H-imidazol-2-yl]phenyl]methyl)-1H-pyrazolo[3,4-d]pyrimidin-6-yl]-2-(propan-2-yl)pyridine] yielded an IC50 of 0.01 to 0.1 µM.

As to `CC(C)c1ncccc1-c1ncc2c(n1)N(Cc1ccc(-c3nc(C(F)(F)F)cn3C)cc1)C(=O)C21CC1` [Example I-11, 3′-([4-[1-methyl-4-(trifluoromethyl)-1H-imidazol-2-yl]phenyl]methyl)-5′-[2-(propan-2-yl)pyridin-3-yl]-2′,3′-dihydrospiro[cyclopropane-1,1′-pyrrolo[2,3-d]pyrimidine]-2′-one], the IC50 lay in the range of 0.01 to 0.1 µM.

On to `CC(C)c1ccccc1-c1ncc2oc(=O)n(Cc3ccc(-c4nc(C(F)(F)F)cn4C)cc3)c2n1` [Example I-12, 5-(2-isopropylphenyl)-3-(4-(1-methyl-4-(trifluoromethyl)-1H-imidazol-2-yl)benzyl)oxazolo[4,5-d]pyrimidin-2(3H)-one], for which the IC50 was not above 0.01 µM.

As to `CC(C)c1ncccc1-c1ncc2oc(=O)n(Cc3ccc(-c4nc(C(F)(F)F)cn4C)cc3)c2n1` [Example I-13], the IC50 was 0.1 to 1 µM.

`CC(C)c1ccccc1-c1ncc2nc(C3CNC3)n(Cc3ccc(-n4cccn4)cc3)c2n1` [Example I-14, 8-(azetidin-3-yl)-2-[2-(propan-2-yl)phenyl]-9-[[4-(1H-pyrazol-1-yl)phenyl]methyl]-9H-purine] gave an IC50 of 0.1 to 1 µM.

`CC(C)c1ccccc1-c1ncc2nc(C3COC3)n(Cc3ccc(-n4cccn4)cc3)c2n1` [Example I-15, 8-(oxetan-3-yl)-2-[2-(propan-2-yl)phenyl]-9-[[4-(1H-pyrazol-1-yl)phenyl]methyl]-9H-purine]: the IC50 is 0.1 to 1 µM.

As for `CC(C)c1ncccc1-c1ncc2c(n1)N(Cc1ccc(-c3nc(C(F)(F)F)cn3C)cc1)C(=O)C2` [Example I-16, 7-([4-[1-methyl-4-(trifluoromethyl)-1H-imidazol-2-yl]phenyl]methyl)-2-[2-(propan-2-yl)pyridin-3-yl]-5H,6H,7H-pyrrolo[2,3-d]pyrimidin-6-one], the IC50 was 0.01 to 0.1 µM.

Turning to `COc1nc2cnc(-c3cccnc3C(C)C)nc2n1Cc1ccc(-c2nc(C(F)(F)F)cn2C)cc1` [Example I-17, 8-methoxy-9-([4-[1-methyl-4-(trifluoromethyl)-1H-imidazol-2-yl]phenyl]methyl)-2-[2-(propan-2-yl)pyridin-3-yl]-9H-purine], the IC50 was in the range of 0.1 to 1 µM.

Turning to `CC(C)c1ccccc1-c1ncc2c(n1)N(Cc1ccc(-c3nc(C(F)(F)F)cn3C)cc1)C(=O)C2` [Example I-18, 7-([4-[1-methyl-4-(trifluoromethyl)-1H-imidazol-2-yl]phenyl]methyl)-2-[2-(propan-2-yl)phenyl]-5H,6H,7H-pyrrolo[2,3-d]pyrimidin-6-one], the IC50 was not above 0.01 µM.

On to `CC(C)c1ncccc1-c1ncc2c(n1)N(Cc1ccc(-c3nc(C(F)(F)F)cn3C3COC3)cc1)C(=O)C2` [Example I-19, 7-([4-[1-(oxetan-3-yl)-4-(trifluoromethyl)-1H-imidazol-2-yl]phenyl]methyl)-2-[2-(propan-2-yl)pyridin-3-yl]-5H,6H,7H-pyrrolo[2,3-d]pyrimidin-6-one], for which the half-maximal inhibitory concentration (IC50) fell in the range of 0.1 to 1 µM.

`CC(C)c1ncccc1-c1ncc2c(n1)N(Cc1ccc(-c3nc(C(F)(F)F)cn3C)cc1)C(=O)CC2` [Example I-20, 8-([4-[1-methyl-4-(trifluoromethyl)-1H-imidazol-2-yl]phenyl]methyl)-2-[2-(propan-2-yl)pyridin-3-yl]-5H,6H,7H,8H-pyrido[2,3-d]pyrimidin-7-one] gave an IC50 of 0.01 to 0.1 µM.

The compound `COc1ncnc(C2CC2)c1-c1ncc2sc(=O)n(Cc3ccc(-n4nc(C(F)(F)F)cc4C)cc3)c2n1` [Example I-21, 5-(4-cyclopropyl-6-methoxypyrimidin-5-yl)-3-(4-(5-methyl-3-(trifluoromethyl)-1H-pyrazol-1-yl)benzyl)thiazolo[4,5-d]pyrimidin-2(3H)-one] yielded an IC50 not above 0.01 µM.

`COc1ncnc(C2CC2)c1-c1ncc2sc(=O)n(Cc3ccc(-c4nc(C(F)(F)F)cn4C)cc3)c2n1` [Example I-22, 5-(4-cyclopropyl-6-methoxypyrimidin-5-yl)-3-(4-(1-methyl-4-(trifluoromethyl)-1H-imidazol-2-yl)benzyl)thiazolo[4,5-d]pyrimidin-2(3H)-one] gave an IC50 not above 0.01 µM.
